In US12162820B2 (TAIWANJ PHARMACEUTICALS CO., LTD., priority 2019, dated 2024):

Legend:
Type in all cases: biochemical
HDAC1 = biological target: T1, HDAC1 (Homo sapiens, UniProt Q13547); experiment: HDAC Inhibition Screening Assay (FLUOR DE LYS Fluorimetric Drug Discovery Kit), HDAC1; settings: for inhibition at 2 µM: 2 μM compound; for inhibition at 10 µM: 10 μM compound; for inhibition at 50 µM: 50 μM compound
T1 construct: purchased Enzo Life Sciences
Protocol: (§1) The HDAC1/HDAC2/HDAC3 in vitro activities are detected by Enzo Life Sciences' HDAC1/HDAC2/HDAC3 Fluorimetric Drug Discovery Kit. The assay is based on the FLUOR DE LYS® Substrate and FLUOR DE LYS® Developer combination. The assay procedure has two steps. First, the FLUOR DE LYS® Substrate, which comprises an acetylated lysine side chain, is incubated with HDAC1/HDAC2/HDAC3, respectively. Deacetylation of the substrate sensitizes the substrate so that, in the second step, treatment with the FLUOR DE LYS® Developer produces a fluorophore. The signals of the test compounds (Compounds 1˜83; at concentrations of 2 μM, 10 μM and 50 μM) in 96-well plates are detected at 360 nm or 485 nm excitation and 460 nm or 530 nm emission with a Molecular Devices SpectraMax i3 Imaging Cytometer. The HDAC1/HDAC2/HDAC3 activities are expressed in percentage of basal control minus baseline control.

HDAC2 = biological target: T2, HDAC2 (Homo sapiens, UniProt Q92769); experiment: HDAC Inhibition Screening Assay (FLUOR DE LYS Fluorimetric Drug Discovery Kit), HDAC2; settings: for inhibition at 2 µM: 2 μM compound; for inhibition at 10 µM: 10 μM compound; for inhibition at 50 µM: 50 μM compound
T2 construct: purchased Enzo Life Sciences
T2 sequence (Q92769 whole entry): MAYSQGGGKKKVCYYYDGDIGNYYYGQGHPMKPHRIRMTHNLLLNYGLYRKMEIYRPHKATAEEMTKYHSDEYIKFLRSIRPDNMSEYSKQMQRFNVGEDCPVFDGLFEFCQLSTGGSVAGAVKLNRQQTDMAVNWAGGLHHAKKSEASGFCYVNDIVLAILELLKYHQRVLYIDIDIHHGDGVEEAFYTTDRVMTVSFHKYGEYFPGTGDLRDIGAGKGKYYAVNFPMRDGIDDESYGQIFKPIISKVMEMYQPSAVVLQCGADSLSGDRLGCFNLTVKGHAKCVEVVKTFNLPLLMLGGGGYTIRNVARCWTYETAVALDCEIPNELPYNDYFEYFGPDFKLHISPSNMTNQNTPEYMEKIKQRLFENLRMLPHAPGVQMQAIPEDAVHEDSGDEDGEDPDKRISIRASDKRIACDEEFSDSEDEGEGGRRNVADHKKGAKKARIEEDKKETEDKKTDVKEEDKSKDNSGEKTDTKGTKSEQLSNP
Protocol: as §1

ATX (autotaxin) = biological target: T3, ATX (autotaxin) (Homo sapiens, UniProt Q13822); experiment: Autotaxin Inhibition Screening Assay (choline release from LPC, LPC-CR); settings: for inhibition at 4 µM: 4 μM compound; for inhibition at 20 µM: 20 μM compound; for inhibition at 50 µM: 50 μM compound
T3 construct: purchased Cayman 10803
Protocol: ATX (autotaxin) activity was measured by choline release from LPC in presence or absence of test compounds (Compounds 1˜83; at concentrations of 4 μM, 20 μM and 50 μM). Twenty (20) ng ATX (10803, Cayman, MI, USA) was incubated with 100 μM 14:0 LPC (855575P, Avanti, AL, USA) in a final volume of 100 μL buffer containing 50 mM Tris pH 8.0, 0.01% Triton X-100, 50 mM CaCl2, 1 unit/ml choline oxidase, 2 unit/ml horseradish peroxidase (HRP), 2 mM homovanilic acid (HVA). The relative amount of released choline was measured by HVA fluorescence in a 96-well plate. Fluorescent intensity was determined at λex/λem=320/450 nm every 60 sec for 90 min with a SpectraMax i3 (Molecular Devices, CA, USA). Data analysis was performed using GraphPad Prism (GraphPad, La Jolla CA, USA). Inhibition %=[1−(SlopeTA−SlopeBlank)/(SlopeVehicle−SlopeBlank)]×100% HDAC Inhibition Screening Assay

HDAC3 = biological target: T4, HDAC3 (Homo sapiens, UniProt O15379); experiment: HDAC Inhibition Screening Assay (FLUOR DE LYS Fluorimetric Drug Discovery Kit), HDAC3; settings: for inhibition at 2 µM: 2 μM compound; for inhibition at 10 µM: 10 μM compound; for inhibition at 50 µM: 50 μM compound
T4 construct: purchased Enzo Life Sciences
T4 sequence (O15379 whole entry): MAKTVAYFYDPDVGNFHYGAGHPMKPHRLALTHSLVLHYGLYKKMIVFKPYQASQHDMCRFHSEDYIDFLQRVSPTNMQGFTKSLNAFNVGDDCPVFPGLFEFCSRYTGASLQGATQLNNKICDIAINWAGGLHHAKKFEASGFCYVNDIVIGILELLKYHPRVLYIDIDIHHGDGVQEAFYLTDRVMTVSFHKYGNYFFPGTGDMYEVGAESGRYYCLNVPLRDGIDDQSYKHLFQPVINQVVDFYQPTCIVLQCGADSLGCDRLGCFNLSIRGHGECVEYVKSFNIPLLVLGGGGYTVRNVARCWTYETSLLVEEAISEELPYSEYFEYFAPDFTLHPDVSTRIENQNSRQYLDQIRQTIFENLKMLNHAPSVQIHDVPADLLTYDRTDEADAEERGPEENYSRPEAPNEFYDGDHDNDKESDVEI
T4 sequence (O75376 395-489 partner limits assumed): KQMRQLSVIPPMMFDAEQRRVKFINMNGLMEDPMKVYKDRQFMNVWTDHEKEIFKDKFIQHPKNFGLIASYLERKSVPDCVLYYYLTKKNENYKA
Protocol: as §1

T1 sequence (Q13547 whole entry): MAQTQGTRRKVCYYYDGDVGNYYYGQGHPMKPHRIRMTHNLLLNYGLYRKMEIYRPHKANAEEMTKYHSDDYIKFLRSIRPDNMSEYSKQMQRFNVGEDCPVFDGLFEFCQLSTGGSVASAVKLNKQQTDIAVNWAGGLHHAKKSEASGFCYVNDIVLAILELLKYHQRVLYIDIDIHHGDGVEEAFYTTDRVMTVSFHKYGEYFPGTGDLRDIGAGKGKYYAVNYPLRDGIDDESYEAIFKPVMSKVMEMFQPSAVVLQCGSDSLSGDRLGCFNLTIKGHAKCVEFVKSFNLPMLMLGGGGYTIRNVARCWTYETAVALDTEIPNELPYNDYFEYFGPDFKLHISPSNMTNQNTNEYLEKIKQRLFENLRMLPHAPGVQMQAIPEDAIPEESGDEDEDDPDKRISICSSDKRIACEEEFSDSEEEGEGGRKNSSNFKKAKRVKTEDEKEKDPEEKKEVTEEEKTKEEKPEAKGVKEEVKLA

SMILES	inhibition at 2 µM (HDAC1) [%]	inhibition at 10 µM (HDAC1) [%]	inhibition at 50 µM (HDAC1) [%]	inhibition at 2 µM (HDAC2) [%]	inhibition at 10 µM (HDAC2) [%]	inhibition at 50 µM (HDAC2) [%]	inhibition at 4 µM (ATX (autotaxin)) [%]	inhibition at 20 µM (ATX (autotaxin)) [%]	inhibition at 50 µM (ATX (autotaxin)) [%]	inhibition at 2 µM (HDAC3) [%]	inhibition at 10 µM (HDAC3) [%]	inhibition at 50 µM (HDAC3) [%]
O=C(/C=C/c1ccc2c(c1)CCC2NS(=O)(=O)c1cc(C(F)(F)F)cc(C(F)(F)F)c1)NO (stereo not drawn) [Compound 18]	< 50	50 to 80	> 80	50 to 80	50 to 80	> 80	< 50	< 50	< 50	< 50	50 to 80	> 80
Nc1cc(F)ccc1NC(=O)CCCCCNC(=O)c1ccc2c(c1)CC/C(=C\c1cc(C(F)(F)F)cc(C(F)(F)F)c1)C2=O [Compound 78]	< 50	< 50	< 50	< 50	< 50	< 50	> 80	> 80	> 80	< 50	< 50	< 50
O=C(/C=C/c1ccc2c(c1)CCC2NCc1cc(C(F)(F)F)cc(C(F)(F)F)c1)NO (stereo not drawn) [Compound 33, (E)-3-(1-((3,5-bis(trifluoromethyl)benzyl)amino)-2,3-dihydro-1H-inden-5-yl)-N-hydroxyacrylamide]	50 to 80	> 80	> 80	50 to 80	> 80	> 80	< 50	< 50	< 50	50 to 80	> 80	> 80
Cc1[nH]c2ccccc2c1CCNC1CCc2cc(/C=C/C(=O)Nc3ccc(F)cc3N)ccc21 (stereo not drawn) [Compound 59, (E)-N-(2-amino-4-fluorophenyl)-3-(1-((2-(2-methyl-1H-indol-3-yl)ethyl)amino)-2,3-dihydro-1H-inden-5-yl)acrylamide]	50 to 80	> 80	> 80	> 80	> 80	> 80	< 50	< 50	< 50	> 80	> 80	> 80
O=C(CCCCCC(=O)Nc1ccc2c(c1)CC/C(=C\c1cc(C(F)(F)F)cc(C(F)(F)F)c1)C2=O)NO [Compound 12, (E)-N1-(6-(3,5-bis(trifluoromethyl)benzylidene)-5-oxo-5,6,7,8-tetrahydronaphthalen-2-yl)-N7-hydroxyheptanediamide]	< 50	50 to 80	> 80	50 to 80	> 80	> 80	> 80	> 80	> 80	50 to 80	> 80	> 80
COc1ccc2c(c1)CCCC2NC(=O)CCCCCCC(=O)NO (stereo not drawn) [Compound 48, N^1-hydroxy-N^8-(6-methoxy-1,2,3,4-tetrahydronaphthalen-1-yl)octanediamide]	> 80	> 80	> 80	> 80	> 80	> 80	< 50	< 50	< 50	> 80	> 80	> 80
Nc1cc(F)ccc1NC(=O)/C=C/c1ccc2c(c1)CCC2NCCC(=O)Nc1cc(C(F)(F)F)cc(C(F)(F)F)c1 (stereo not drawn) [Compound 49, (E)-N-(2-amino-4-fluorophenyl)-3-(1-((3-((3,5-bis(trifluoromethyl)phenyl)amino)-3-oxopropyl)amino)-2,3-dihydro-1H-inden-5-yl)acrylamide]	< 50	< 50	< 50	< 50	< 50	50 to 80	< 50	< 50	< 50	< 50	< 50	50 to 80
CN(C)c1ccc(CCNC2CCc3cc(/C=C/C(=O)NO)ccc32)cc1 (stereo not drawn) [Compound 56, (E)-3-(1-((4-(dimethylamino)phenethyl)amino)-2,3-dihydro-1H-inden-5-yl)-N-hydroxyacrylamide]	> 80	> 80	> 80	> 80	> 80	> 80	< 50	< 50	< 50	> 80	> 80	> 80
Nc1cc(F)ccc1NC(=O)/C=C/c1ccc2c(c1)CC/C(=C\c1cc(C(F)(F)F)cc(C(F)(F)F)c1)C2=O [Compound 6, (E)-N-(2-amino-4-fluorophenyl)-3-(6-((E)-3,5-bis(trifluoromethyl)benzylidene)-5-oxo-5,6,7,8-tetrahydronaphthalen-2-yl)acrylamide]	< 50	< 50	< 50	< 50	< 50	< 50	50 to 80	50 to 80	50 to 80	< 50	< 50	< 50

Other lines, results leading:

inhibition at 2 µM (HDAC1) [%]	inhibition at 10 µM (HDAC1) [%]	inhibition at 50 µM (HDAC1) [%]	inhibition at 2 µM (HDAC2) [%]	inhibition at 10 µM (HDAC2) [%]	inhibition at 50 µM (HDAC2) [%]	inhibition at 4 µM (ATX (autotaxin)) [%]	inhibition at 20 µM (ATX (autotaxin)) [%]	inhibition at 50 µM (ATX (autotaxin)) [%]	inhibition at 2 µM (HDAC3) [%]	inhibition at 10 µM (HDAC3) [%]	inhibition at 50 µM (HDAC3) [%]	SMILES
> 80	> 80	> 80	> 80	> 80	> 80	< 50	< 50	< 50	> 80	> 80	> 80	Cc1[nH]c2ccccc2c1CCNC1CCc2cc(/C=C/C(=O)NO)ccc21 (stereo not drawn) [Compound 60, (E)-N-hydroxy-3-(1-((2-(2-methyl-1H-indol-3-yl)ethyl)amino)-2,3-dihydro-1H-inden-5-yl)acryl amide]
< 50	< 50	< 50	< 50	< 50	< 50	< 50	< 50	< 50	< 50	< 50	< 50	Nc1ccccc1NC(=O)c1ccc(COc2ccc3c(c2)CC/C(=C\c2cc(C(F)(F)F)cc(C(F)(F)F)c2)C3=O)cc1 [Compound 66, (E)-N-(2-aminophenyl)-4-(((6-(3,5-bis(trifluoromethyl)-benzylidene)-5-oxo-5,6,7,8-tetrahydronaphthalen-2-yl)oxy)methyl)benzamide]
> 80	> 80	> 80	> 80	> 80	> 80	< 50	< 50	< 50	> 80	> 80	> 80	O=C(CCCCCCC(=O)Nc1ccc2c(c1)CCCC2O)NO (stereo not drawn) [Compound 2, N^1-hydroxy-N^8-(5-hydroxy-5,6,7,8-tetrahydronaphthalen-2-yl)octanediamide]
> 80	> 80	> 80	> 80	> 80	> 80	< 50	< 50	< 50	> 80	> 80	> 80	COc1ccc(CCNC2CCc3cc(/C=C/C(=O)NO)ccc32)cc1 (stereo not drawn) [Compound 52, (E)-N-hydroxy-3-(1-((4-methoxyphenethyl)amino)-2,3-dihydro-1H-inden-5-yl)acrylamide]
50 to 80	> 80	> 80	50 to 80	> 80	> 80	< 50	< 50	< 50	50 to 80	> 80	> 80	COc1ccc2c(c1)CCC2NC(=O)CCCCCCC(=O)NO (stereo not drawn) [Compound 44]
